Assay results from PMC12615863, “Improving GRPR-targeting peptides for radiotheranostics application: insights from chelator modifications and α-methyl-L tryptophan substitution” (EJNMMI Radiopharmacy and Chemistry, 2025).
Where two headings read alike, the source gives them in different places.

Legend:
[1] = tested on: PC-3 cells; assay: In vitro GRPR specificity assay (uptake with or without NOTA-PEG2-RM26 block); assay type: cell-based, human
Experimental: After discarding the medium, the cells were washed with cold (4 °C) phosphate-buffered saline containing 1% w/v bovine serum albumin (PBS/BSA). The radiopeptides (Cf = 1 nM in 1 mL PBS/BSA) were added to all wells. A subset of wells was also treated with an excess of unlabeled GRPR-binding peptide NOTA-PEG2-RM26 (Bjäreback et al. [2025]) (Cf = 1 µM in 1 mL PBS/BSA) to block GRPR. After incubation for 1 h at 37 °C, the supernatant was removed, and the cells were washed and then collected by treating them with 1 M NaOH. The activity of the collected samples was measured with the gamma counter. This assay was performed in triplicate for each radiopeptide.

[2] = Biodistribution in mice bearing PC-3 xenografts; assay type: in vivo, Balb/c nu/nu mice; details: mouse, total radioactivity; for tissue uptake at 4 h / tissue uptake dose at 4 h: 4 h pi; for tissue uptake at 24 h / tissue uptake dose at 24 h: 24 h pi
Experimental: (§1) Each mouse was xenografted with a subcutaneous injection of 8 × 10⁶ PC-3 cells in the right hind leg. After approximately 4 weeks, the animals were injected into the tail vein with 100 µL of radiopeptide (100 pmol—110–130 kBq, diluted in PBS/BSA). Four animals were used for each time point per peptide. […] At the determined time points, the mice were euthanized, organs were collected and weighed, and their activity content was measured in the gamma counter. Results were presented as the percentage of injected activity per gram (%IA/g) for the collected organs, and the percentage of injected activity (%IA) for the gastrointestinal tract (GI) and the carcass. […] Statistical analysis was performed with GraphPad Prism 10 using two way ANOVA with Tuckey’s or Šidák’a post hoc analysis.

[3] = tested on: PC-3 xenografts; assay: Biodistribution in mice bearing PC-3 xenografts; assay type: in vivo, Balb/c nu/nu mice; details: PC-3 xenografted mice, between 4 and 24 h pi
Experimental: as §1

[4] = In vivo stability: intact radiopeptide in peripheral mouse blood 5 min pi, radio-HPLC; details: for Percentage of intact peptide, Entresto: blood 5 min pi
Experimental: Two animals per peptide were injected intravenously with a bolus of test radioligand (50 MBq, 2 nmol of peptide in 100 μL PBS/EtOH v/v 9:1) – Control group. To inhibit NEP, additional groups of two mice per compound were orally treated with 12 mg Entresto® (Novartis, Basel, Switzerland) 30 min before receiving the intravenous injection—Entresto group. Five minutes post-injection (pi), the animals were euthanized, and the blood was collected and immediately mixed with EDTA (0.1 mM, 40 μL) in Eppendorf tubes on ice. The mixture was spun at 2000 g for 10 min at 4 °C in an Eppendorf Centrifuge 5430 R (Eppendorf AG, Hamburg, Germany), and the plasma was collected and diluted with an equal volume of MeCN (4 °C). After a second centrifugation at 15,000 g and 4 °C for 10 min, the supernatant was collected in an Eppendorf tube and concentrated to 50–100 μL at 50 °C using a mild stream of N2. PBS was added to the samples to reach a final volume of 200 μL, and the solutions were filtered through a syringe filter (0.22 μm, 13 mm, VWR International, Radnor, USA). The filtered solution was analyzed by reversed-phase radio-HPLC to determine the percentage of intact peptides. The peak corresponding to the intact peptide was identified by injection of an aliquot of the labeling solution.

[5] = Balb/c nu/nu, blood, iv, 100 pmol, PC-3 xenografted Balb/c nu/nu mice, iv 100 pmol, mean ± SD, n = 4, read-out: Blood activity uptake
[6] = Balb/c nu/nu, bone, iv, 100 pmol, PC-3 xenografted Balb/c nu/nu mice, iv 100 pmol, mean ± SD, n = 4, read-out: Bone activity uptake
[7] = Balb/c nu/nu, kidneys, iv, 100 pmol, PC-3 xenografted Balb/c nu/nu mice, iv 100 pmol, mean ± SD, n = 4, read-out: Kidneys activity uptake
[8] = Balb/c nu/nu, liver, iv, 100 pmol, PC-3 xenografted Balb/c nu/nu mice, iv 100 pmol, mean ± SD, n = 4, read-out: Liver activity uptake
[9] = Balb/c nu/nu, lungs, iv, 100 pmol, PC-3 xenografted Balb/c nu/nu mice, iv 100 pmol, mean ± SD, n = 4, read-out: Lungs activity uptake
[10] = Balb/c nu/nu, muscle, iv, 100 pmol, PC-3 xenografted Balb/c nu/nu mice, iv 100 pmol, mean ± SD, n = 4, read-out: Muscle activity uptake
[11] = Balb/c nu/nu, pancreas, iv, 100 pmol, PC-3 xenografted Balb/c nu/nu mice, iv 100 pmol, mean ± SD, n = 4, read-out: Pancreas activity uptake
[12] = Balb/c nu/nu, small intestine, iv, 100 pmol, PC-3 xenografted Balb/c nu/nu mice, iv 100 pmol, mean ± SD, n = 4, read-out: Small Int. activity uptake
[13] = Balb/c nu/nu, spleen, iv, 100 pmol, PC-3 xenografted Balb/c nu/nu mice, iv 100 pmol, mean ± SD, n = 4, read-out: Spleen activity uptake
[14] = Balb/c nu/nu, stomach, iv, 100 pmol, PC-3 xenografted Balb/c nu/nu mice, iv 100 pmol, mean ± SD, n = 4, read-out: Stomach activity uptake
[15] = Balb/c nu/nu, tumor, iv, 100 pmol, PC-3 xenografted Balb/c nu/nu mice, iv 100 pmol, mean ± SD, n = 4, read-out: Tumor activity uptake
[16] = carcass, PC-3 xenografted Balb/c nu/nu mice, iv 100 pmol, mean ± SD, n = 4, read-out: Body activity uptake
[17] = gastrointestinal tract with content, PC-3 xenografted Balb/c nu/nu mice, iv 100 pmol, mean ± SD, n = 4, read-out: GI activity uptake

CC(C)C[C@H](NC(=O)C[C@H](O)[C@H](CC(C)C)NC(=O)[C@H](Cc1c[nH]cn1)NC(=O)CN(C)C(=O)[C@@H](NC(=O)[C@H](C)NC(=O)[C@](C)(Cc1c[nH]c2ccccc12)NC(=O)[C@H](CCC(N)=O)NC(=O)[C@@H](Cc1ccccc1)NC(=O)CN1CCC(NC(=O)COCCOCCNC(=O)CCC(C(=O)O)N2CCN(CC(=O)O)CCN(CC(=O)O)CCN(CC(=O)O)CC2)CC1)C(C)C)C(N)=O (stereo partly drawn) [[^177Lu]Lu-PKB2, metal not drawn]
in vitro binding specificity ([1]; 1 nM radiopeptide, 1 h at 37 °C, block with 1 µM NOTA-PEG2-RM26, n = 3): GRPR-mediated activity uptake
total cellular activity uptake (rank among the three radiopeptides) ([1]; 1 nM, 37 °C, n = 3): lowest
tissue uptake at 2 h ([2]; Balb/c nu/nu, blood, iv, 100 pmol, PC-3 xenografted Balb/c nu/nu mice, iv 100 pmol, 2 h pi, mean ± SD, n = 4, read-out: Blood activity uptake): 0.13 ± 0.05 %ID/g
tissue uptake at 4 h [2, 5]: 0.07 ± 0.03 %ID/g
tissue uptake at 24 h [2, 5]: 0.01 ± 0.01 %ID/g
tissue uptake at 2 h ([2]; Balb/c nu/nu, blood, iv, PC-3 xenografted Balb/c nu/nu mice, iv 100 pmol, 2 h pi blocked (co-injected 100-fold molar excess NOTA-PEG2-RM26), mean ± SD, n = 3, read-out: Blood activity uptake): 0.06 ± 0.02 %ID/g
tissue uptake at 2 h ([2]; Balb/c nu/nu, blood, lungs, spleen, muscle, bone, iv, 100 pmol, PC-3 xenografted mice, 2 h pi, read-out: activity uptake in non-target organs (blood, lungs, spleen, muscle, and bone)): < 0.6 %ID/g
tissue uptake at 2 h ([2]; Balb/c nu/nu, bone, iv, 100 pmol, PC-3 xenografted Balb/c nu/nu mice, iv 100 pmol, 2 h pi, mean ± SD, n = 4, read-out: Bone activity uptake): 0.13 ± 0.07 %ID/g
tissue uptake at 4 h [2, 6]: 0.14 ± 0.05 %ID/g
tissue uptake at 24 h [2, 6]: 0.09 ± 0.04 %ID/g
tissue uptake at 2 h ([2]; Balb/c nu/nu, bone, iv, PC-3 xenografted Balb/c nu/nu mice, iv 100 pmol, 2 h pi blocked (co-injected 100-fold molar excess NOTA-PEG2-RM26), mean ± SD, n = 3, read-out: Bone activity uptake): 0.13 ± 0.03 %ID/g
tissue uptake dose ([2]; Balb/c nu/nu, gastrointestinal tract with content, iv, 100 pmol, PC-3 xenografted mice, all time points (2, 4, 24 h pi), read-out: activity uptake for the GI with content): < 2 %ID
tissue uptake at 2 h ([2]; Balb/c nu/nu, kidneys, iv, 100 pmol, PC-3 xenografted Balb/c nu/nu mice, iv 100 pmol, 2 h pi, mean ± SD, n = 4, read-out: Kidneys activity uptake): 8.9 ± 2.5 %ID/g
tissue uptake at 4 h [2, 7]: 9.5 ± 2.1 %ID/g
tissue uptake at 24 h [2, 7]: 5.5 ± 0.6 %ID/g
tissue uptake at 2 h ([2]; Balb/c nu/nu, kidneys, iv, PC-3 xenografted Balb/c nu/nu mice, iv 100 pmol, 2 h pi blocked (co-injected 100-fold molar excess NOTA-PEG2-RM26), mean ± SD, n = 3, read-out: Kidneys activity uptake): 7.6 ± 1.2 %ID/g
tissue uptake at 2 h ([2]; Balb/c nu/nu, liver, iv, 100 pmol, PC-3 xenografted Balb/c nu/nu mice, iv 100 pmol, 2 h pi, mean ± SD, n = 4, read-out: Liver activity uptake): 0.24 ± 0.05 %ID/g
tissue uptake at 4 h [2, 8]: 0.2 ± 0.03 %ID/g
tissue uptake at 24 h [2, 8]: 0.14 ± 0.02 %ID/g
tissue uptake at 2 h ([2]; Balb/c nu/nu, liver, iv, PC-3 xenografted Balb/c nu/nu mice, iv 100 pmol, 2 h pi blocked (co-injected 100-fold molar excess NOTA-PEG2-RM26), mean ± SD, n = 3, read-out: Liver activity uptake): 0.2 ± 0.02 %ID/g
tissue uptake at 4 h [2, 9]: 0.3 ± 0.2 %ID/g
tissue uptake at 24 h [2, 9]: 0.07 ± 0.01 %ID/g
tissue uptake at 2 h ([2]; Balb/c nu/nu, lungs, iv, PC-3 xenografted Balb/c nu/nu mice, iv 100 pmol, 2 h pi blocked (co-injected 100-fold molar excess NOTA-PEG2-RM26), mean ± SD, n = 3, read-out: Lungs activity uptake): 0.21 ± 0.03 %ID/g
tissue uptake at 2 h ([2]; Balb/c nu/nu, muscle, iv, 100 pmol, PC-3 xenografted Balb/c nu/nu mice, iv 100 pmol, 2 h pi, mean ± SD, n = 4, read-out: Muscle activity uptake): 0.07 ± 0.06 %ID/g
tissue uptake at 4 h [2, 10]: 0.05 ± 0.02 %ID/g
tissue uptake at 24 h [2, 10]: 0.02 ± 0.01 %ID/g
tissue uptake at 2 h ([2]; Balb/c nu/nu, muscle, iv, PC-3 xenografted Balb/c nu/nu mice, iv 100 pmol, 2 h pi blocked (co-injected 100-fold molar excess NOTA-PEG2-RM26), mean ± SD, n = 3, read-out: Muscle activity uptake): 0.04 ± 0.01 %ID/g
tissue uptake at 2 h ([2]; Balb/c nu/nu, pancreas, iv, 100 pmol, PC-3 xenografted Balb/c nu/nu mice, iv 100 pmol, 2 h pi, mean ± SD, n = 4, read-out: Pancreas activity uptake): 7.3 ± 3 %ID/g
tissue uptake at 4 h [2, 11]: 2.9 ± 1 %ID/g
tissue uptake at 24 h [2, 11]: 0.43 ± 0.09 %ID/g
tissue uptake at 2 h ([2]; Balb/c nu/nu, small intestine, iv, 100 pmol, PC-3 xenografted Balb/c nu/nu mice, iv 100 pmol, 2 h pi, mean ± SD, n = 4, read-out: Small Int. activity uptake): 0.8 ± 0.5 %ID/g
tissue uptake at 4 h [2, 12]: 0.5 ± 0.2 %ID/g
tissue uptake at 24 h [2, 12]: 0.07 ± 0.04 %ID/g
tissue uptake at 2 h ([2]; Balb/c nu/nu, small intestine, iv, PC-3 xenografted Balb/c nu/nu mice, iv 100 pmol, 2 h pi blocked (co-injected 100-fold molar excess NOTA-PEG2-RM26), mean ± SD, n = 3, read-out: Small Int. activity uptake): 0.3 ± 0.1 %ID/g
tissue uptake at 2 h ([2]; Balb/c nu/nu, spleen, iv, 100 pmol, PC-3 xenografted Balb/c nu/nu mice, iv 100 pmol, 2 h pi, mean ± SD, n = 4, read-out: Spleen activity uptake): 0.15 ± 0.07 %ID/g
tissue uptake at 4 h [2, 13]: 0.15 ± 0.06 %ID/g
tissue uptake at 24 h [2, 13]: 0.11 ± 0.04 %ID/g
tissue uptake at 2 h ([2]; Balb/c nu/nu, spleen, iv, PC-3 xenografted Balb/c nu/nu mice, iv 100 pmol, 2 h pi blocked (co-injected 100-fold molar excess NOTA-PEG2-RM26), mean ± SD, n = 3, read-out: Spleen activity uptake): 0.12 ± 0.04 %ID/g
tissue uptake at 4 h [2, 14]: 1.3 ± 0.2 %ID/g
tissue uptake at 24 h [2, 14]: 0.14 ± 0.07 %ID/g
tissue uptake at 2 h ([2]; Balb/c nu/nu, stomach, iv, PC-3 xenografted Balb/c nu/nu mice, iv 100 pmol, 2 h pi blocked (co-injected 100-fold molar excess NOTA-PEG2-RM26), mean ± SD, n = 3, read-out: Stomach activity uptake): 0.36 ± 0.07 %ID/g
tissue uptake at 2 h ([2]; Balb/c nu/nu, stomach, small intestines, iv, 100 pmol, PC-3 xenografted mice, 2 h pi, read-out: activity uptake in the stomach and small intestines): < 2.5 %ID/g
tissue uptake at 2 h ([2]; Balb/c nu/nu, tumor, iv, 100 pmol, PC-3 xenografted Balb/c nu/nu mice, iv 100 pmol, 2 h pi, mean ± SD, n = 4, read-out: Tumor activity uptake): 15.8 ± 3.7 %ID/g
tissue uptake at 4 h [2, 15]: 15.3 ± 1.4 %ID/g
tissue uptake at 24 h [2, 15]: 12.1 ± 1.3 %ID/g
tissue uptake at 2 h ([2]; Balb/c nu/nu, tumor, iv, PC-3 xenografted Balb/c nu/nu mice, iv 100 pmol, 2 h pi blocked (co-injected 100-fold molar excess NOTA-PEG2-RM26), mean ± SD, n = 3, read-out: Tumor activity uptake): 3.1 ± 0.9 %ID/g
tissue uptake dose at 2 h ([2]; carcass, PC-3 xenografted Balb/c nu/nu mice, iv 100 pmol, 2 h pi, mean ± SD, n = 4, read-out: Body activity uptake): 1.8 ± 1.3 %ID
tissue uptake dose at 4 h [2, 16]: 2.3 ± 0.8 %ID
tissue uptake dose at 24 h [2, 16]: 0.5 ± 0.1 %ID
tissue uptake dose at 2 h ([2]; gastrointestinal tract with content, PC-3 xenografted Balb/c nu/nu mice, iv 100 pmol, 2 h pi, mean ± SD, n = 4, read-out: GI activity uptake): 1.5 ± 0.4 %ID
tissue uptake dose at 4 h [2, 17]: 0.7 ± 0.2 %ID
tissue uptake dose at 24 h [2, 17]: 0.3 ± 0.2 %ID
tumor retention of activity [3]: around 80%
Percentage of intact peptide, Entresto ([4]; NMRI mice, 12 mg Entresto orally 30 min before injection, recorded value n1): 92%
Percentage of intact peptide, Entresto ([4]; NMRI mice, 12 mg Entresto orally 30 min before injection, recorded value n2): 94%
Percentage of intact peptide, Entresto ([4]; healthy NMRI mice, 12 mg Entresto orally 30 min before iv injection (NEP inhibition), radio-HPLC, mean of n = 2): 93%
Percentage of intact peptide, Control ([4]; healthy NMRI mice, iv 50 MBq, 2 nmol, peripheral blood 5 min pi, radio-HPLC, mean of n = 2): 85% [81% - 90%]
